Tests used:
Format in all cases: in vivo
[1] = test system: barnyardgrass (Echinochloa crus-galli); test: Test A preemergence, directed soil spray, visual injury rating; conditions: 0 is no effect, 100 is complete control
Outline: (§1)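 Injury ratings, 0 (no effect) to 100 (complete control), were scored visually versus untreated plants roughly 10 d after treatment under greenhouse conditions. Treatments used surfactant-containing solvent formulations, sprayed onto soil preemergence or onto one- to two-leaf seedlings (2-10 cm) postemergence, grown in a loam-sand mix.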

kochia (Kochia scoparia) [2] = test: as above; conditions: 0 is no effect, 100 is complete control
Outline: as §1

[3] = test system: foxtail, giant (giant foxtail, Setaria faberii); test: as above; conditions: 0 is no effect, 100 is complete control
Outline: as §1

[4] = test system: pigweed (Amaranthus retroflexus); test: as above; conditions: 0 is no effect, 100 is complete control
Outline: as §1

[5] = test system: ragweed (common ragweed, Ambrosia elatior); test: as above; conditions: 0 is no effect, 100 is complete control
Outline: as §1

[6] = test system: ryegrass, It. (Italian ryegrass, Lolium multiflorum); test: as above; conditions: 0 is no effect, 100 is complete control
Outline: as §1

[7] = test system: ducksalad (Heteranthera limosa); test: Test B flooded paddy test, visual rating; conditions: Flood, 250 g ai/ha, applied to paddy water, rated after 13 to 15 d
Outline: (§2)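 Ratings use a 0-100 visual scale, where 100 is complete control, and compare treated plants with controls after 13 to 15 d of greenhouse growth. Compound went straight into paddy water kept 3 cm over the soil surface, applied to seedlings at the 2-leaf stage.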

[8] = test system: barnyardgrass (Echinochloa crus-galli); test: Test B flooded paddy test, visual rating; conditions: Flood, 250 g ai/ha, applied to paddy water, rated after 13 to 15 d
Outline: as §2

rice (Oryza sativa) = test: Test B flooded paddy test, visual rating; conditions: Flood, 250 g ai/ha, applied to paddy water, rated after 13 to 15 d
Outline: as §2

[9] = test system: sedge, umbrella (small-flower umbrella sedge, Cyperus difformis); test: Test B flooded paddy test, visual rating; conditions: Flood, 250 g ai/ha, applied to paddy water, rated after 13 to 15 d
Outline: as §2

[10] = test system: galium (catchweed bedstraw, Galium aparine); test: Test A postemergence application, visual injury rating; conditions: 0 to 100 scale, 0 no effect, 100 complete control
Outline: as §1

[11] = test system: barnyardgrass (Echinochloa crus-galli); test: as above; conditions: 0 to 100 scale, 0 no effect, 100 complete control
Outline: as §1

kochia (Kochia scoparia) [12] = test: as above; conditions: 0 to 100 scale, 0 no effect, 100 complete control
Outline: as §1

[13] = test system: foxtail, giant (giant foxtail, Setaria faberii); test: as above; conditions: 0 to 100 scale, 0 no effect, 100 complete control
Outline: as §1

[14] = test system: pigweed (Amaranthus retroflexus); test: as above; conditions: 0 to 100 scale, 0 no effect, 100 complete control
Outline: as §1

corn (Zea mays) = test: as above; conditions: 0 to 100 scale, 0 no effect, 100 complete control
Outline: as §1

[15] = test system: ragweed (common ragweed, Ambrosia elatior); test: as above; conditions: 0 to 100 scale, 0 no effect, 100 complete control
Outline: as §1

[16] = test system: blackgrass (Alopecurus myosuroides); test: as above; conditions: 0 to 100 scale, 0 no effect, 100 complete control
Outline: as §1

[17] = test system: wheat (Triticum aestivum); test: as above; conditions: 0 to 100 scale, 0 no effect, 100 complete control
Outline: as §1

[18] = test system: ryegrass, It. (Italian ryegrass, Lolium multiflorum); test: as above; conditions: 0 to 100 scale, 0 no effect, 100 complete control
Outline: as §1

SMILES: Cc1nn(C)c(=O)c(-c2ccc(Cl)c3ccsc23)c1O [Compound 55]
- Plant response rating (0 to 100 scale), Barnyardgrass ([1]; 31 g ai/ha): 0
- Plant response rating (0 to 100 scale), Barnyardgrass ([1]; 125 g ai/ha): 0
- Plant response rating (0 to 100 scale), Kochia (kochia (Kochia scoparia) [2]; 31 g ai/ha): 0
- Plant response rating (0 to 100 scale), Kochia (kochia (Kochia scoparia) [2]; 125 g ai/ha): 20
- Plant response rating (0 to 100 scale), Foxtail, Giant ([3]; 31 g ai/ha): 0
- Plant response rating (0 to 100 scale), Foxtail, Giant ([3]; 125 g ai/ha): 0
- Plant response rating (0 to 100 scale), Pigweed ([4]; 31 g ai/ha): 0
- Plant response rating (0 to 100 scale), Pigweed ([4]; 125 g ai/ha): 60
- Plant response rating (0 to 100 scale), Ragweed ([5]; 31 g ai/ha): 0
- Plant response rating (0 to 100 scale), Ragweed ([5]; 125 g ai/ha): 0
- Plant response rating (0 to 100 scale), Ryegrass, It. ([6]; 31 g ai/ha): 80
- Plant response rating (0 to 100 scale), Ryegrass, It. ([6]; 125 g ai/ha): 100
- Ducksalad plant response rating (0 to 100 scale, 0 is no effect, 100 is complete control) [7]: 0
- Barnyardgrass plant response rating (0 to 100 scale, 0 is no effect, 100 is complete control) [8]: 0
- Rice plant response rating (0 to 100 scale, 0 is no effect, 100 is complete control) (rice (Oryza sativa)): 0
- Sedge, Umbrella plant response rating (0 to 100 scale, 0 is no effect, 100 is complete control) [9]: 0
- Galium plant response rating ([10]; 31 g ai/ha): 80
- Galium plant response rating ([10]; 125 g ai/ha): 100
- Barnyardgrass plant response rating ([11]; 31 g ai/ha): 0
- Barnyardgrass plant response rating ([11]; 125 g ai/ha): 10
- Kochia plant response rating (kochia (Kochia scoparia) [12]; 31 g ai/ha): 40
- Kochia plant response rating (kochia (Kochia scoparia) [12]; 125 g ai/ha): 100
- Foxtail, Giant plant response rating ([13]; 31 g ai/ha): 0
- Foxtail, Giant plant response rating ([13]; 125 g ai/ha): 0
- Pigweed plant response rating ([14]; 31 g ai/ha): 30
- Pigweed plant response rating ([14]; 125 g ai/ha): 60
- Corn plant response rating (corn (Zea mays); 31 g ai/ha): 0
- Corn plant response rating (corn (Zea mays); 125 g ai/ha): 0
- Ragweed plant response rating ([15]; 31 g ai/ha): 0
- Ragweed plant response rating ([15]; 125 g ai/ha): 30
- Blackgrass plant response rating ([16]; 31 g ai/ha): 0
- Blackgrass plant response rating ([16]; 125 g ai/ha): 10
- Wheat plant response rating ([17]; 31 g ai/ha): 0
- Wheat plant response rating ([17]; 125 g ai/ha): 0
- Ryegrass, It. plant response rating ([18]; 31 g ai/ha): 40
- Ryegrass, It. plant response rating ([18]; 125 g ai/ha): 70

Reference: patent publication US10750743B2, “Pyridazinone herbicides” (E.I. DU PONT DE NEMOURS AND COMPANY, priority 2015, dated 2020)
